According to US20120189579A1 (priority 2009, published 2012):
Counter-ions that a name gives are not always drawn.

How the values were obtained:
[1] = target: T1, HCV NS5BΔ21/Gal4-DBD fusion protein (Hepatitis C virus genotype 1b, UniProt Q9WMX2); experiment: 3D-SCREEN assay (NS5B reporter gene assay in Huh-7 cells); assay type: cell-based, HCV genotype 1b
T1 construct: The protein was expressed with a 21 amino acid C-terminal deletion to remove transmembrane domain; expressed in transfected cells; host or cells: Huh-7 (transient transfection)
Method: (§1) Human Hepatoma Huh-7 cell line was maintained in DMEM/HAMF-12 supplemented with 10% SVF, 4 mM glutamine, […] Na pyruvate, 1% penistreptomycine. HCV replicon containing Huh-7 cell lines Huh-9.13 and Luc Neo ET (Reblikon) were maintained in DMEM supplemented with 10% SVF, 2 mM glutamine, and 1×NEAA, 100 U/ml penicillin, and 100 μg/ml streptomycine. Replicon cells were maintained in medium supplemented with 1 mg/ml G418 for replicon Huh-9.13 and 0.5 mg/ml for Luc Neo et replicon unless indicated otherwise. Huh-7 and HCV replicon cell lines were maintained at 37° C. and 5% CO2 in a humidified atmosphere. Cells were dissociated at sub confluence with trypsin EDTA 1×.
cDNA encoding HCV NS5B genotype 1b, was cloned in frame with Gal4-DNA Binding Domain. The protein was expressed with a 21 amino acid C-terminal deletion to remove transmembrane domain. Expression of NS5BΔ21/Gal4 DBD fusion protein was under control of SV40 early promoter. 3D-Sensor peptide was cloned in frame with VP16 activation domain. Expression of 3D-Sensor/VP16 AD fusion protein was under control of CMV promoter. Expression of the firefly luciferase reporter gene was inducible by the [Target protein/conformation sensitive peptide/VP16AD] complex.
It is a single-target, cell based assay. Briefly, expression of a reporter gene depends on the interaction of a short peptide, thereafter named 3D-Sensor, and native conformation of the target protein. Whenever the conformation of the target protein is modified, interaction between 3D-sensor and target protein is disrupted and reporter gene is not expressed anymore. Conformation modifiers are identified by loss of expression of reporter gene. NS5B 3D-Screen platform was generated in Huh-7 cell lines by transient transfection of three expression vectors encoding respectively • (i) HCV NS5BΔ21/Gal4-DBD fusion protein • (ii) the 3D-sensor peptide 14/VP16 fusion protein • (iii) the firefly luciferase reporter gene
Huh-7 cells were dissociated the day before transfection and seeded in T175 flasks at a density of 10^7 cells in 30 ml culture medium. Equimolar ratios of vectors were transfected in cell according to optimized jetPEI transfection protocol (PolyPlus Transfection, Illkirch, France) and 10 μg total DNA/10^6 cells. Transfection was performed for 2 hours at 37° C. and 5% CO2 in a humidified atmosphere. After two hours cells were dissociated and seeded in 96 wells plates at a density of 25,000 cells per well and 90 μl culture medium. 10 μl of compounds to be tested were added 2 hours after seeding. Final concentration of DMSO was 1%. Cells were incubated in the presence of compounds for 24 hours after which expression of firefly luciferase reporter gene was quantified. Briefly, culture medium was removed and cells were lysed by addition of 100 μl of lysis buffer containing 125 mM Tris Phosphate ph 7.8, 10 mM EDTA, 5 mM DTT, 50% glycerol and 5% Triton. Plates were vortexed 10 min at 1300 rpm. Cell lysat was transferred in OpaqueWhite Assay 96 well Flat Bottom plates. 100 μl of luciferin solution 1× were added to each well. Luciferin solution contained 40 mM Tris Phosphate ph 7.8, 0.2 mM EDTA, 67 mM DTT, 2.14 mM MgCl2, 5.4 mM MgSO4, 4.7×10^−4 M luciferin, 5.3×10^−4 M ATP and 2.7×10^−4 M Acetyl co enzyme A. Luminescence was immediately measured with Berthold Microlumat Plus LB 96V luminometer with an integration of 0.5 sec. Inhibition was calculated using the formula: % inhibition=(1−(read/average max))*100. Average max=signal in absence of compound

[2] = test system: HCV replicon Luc Neo ET in Huh-7 cells; experiment: Replicon assay (Luc Neo ET replicon); assay type: cell-based; details: Hepatitis C virus, 72 hours with compound, firefly luciferase reporter, read-out: EC50—Replicon LucneoET
Method: as §1
Replicon Luc Neo ET is a bicistronic expression constructs (Lohmann et al, 1999, Science 285, 110-113). In brief, the structural genes of the HCV genome were replaced by heterologous sequences; the gene encoding the neomycin phosphotransferase (NPT) and the internal ribosome entry site (IRES) of the encephalomyocarditis virus (EMCV). The bicistronic construct is therefore composed of the following elements: HCV-IRES nucleotides 1-389, the NPT gene, the EMCV-IRES directing translation of downstream HCV sequences from NS2 or NS3 up to the authentic 3′ end of the genome. HCV Polyprotein harbours the cell culture adaptive mutations E1202G, T1280I, K1846T. G418-resistance is only possible with cells containing high amounts of replicon.
Cells were dissociated the day before addition of compounds and seeded in 96 well-plates at a final concentration of 77 777.77 cells·ml^−1·well^−2 in 90 μl final volume of culture medium per well and were maintained at 37° C. and 5% CO2 in a humidified atmosphere for 24 hours. 10 μl of compounds to be tested were added 24 hours after seeding. Final concentration of DMSO was 1%. Cells were incubated in the presence of compounds for 72 hours after which expression of firefly luciferase reporter gene was quantified. Briefly, culture medium was removed and cells were lysed by addition of 100 μl of lysis buffer containing 125 mM Tris Phosphate ph 7.8, 10 mM EDTA, 5 mM DTT, 50% glycerol and 5% Triton. Plates were vortexed 10 min at 1300 rpm. Cell lysat was transferred in OpaqueWhite Assay 96 well Flat Bottom plates. 100 μl of luciferin solution 1× were added to each well. Luciferin solution contained 40 mM Tris Phosphate ph 7.8, 0.2 mM EDTA, 67 mM DTT, 2.14 mM MgCl2, 5.4 mM MgSO4, 4.7×10^−4 M luciferin, 5.3×10^−4 M ATP and 2.7×10^−4 M Acetyl co enzyme A. Luminescence was immediately measured with Berthold Microlumat Plus LB 96V luminometer with an integration of 0.5 sec Inhibition was calculated using the formula:
% inhibition=1−[(RLUsample−RLUbackground)/(RLUsignal−RLUbackground)]

melting point [°C] | SMILES | EC50 [1] [µM] | EC50 [2] [µM]
172 | CC(C)(C)c1ccc(C2C(C(=O)CCc3ccccc3)=C(O)C(=O)N2c2ncc(S(=O)(=O)c3ccc([N+](=O)[O-])cc3)s2)cc1 (stereo not shown) |  | 
211 | Cc1ccc(C(=O)C2=C(O)C(=O)N(c3ncc(S(=O)(=O)c4ccc([N+](=O)[O-])cc4)s3)C2c2cccnc2)cc1 (stereo not shown) |  | 
255 to 257 | COC(=O)c1ccc(C2C(C(=O)c3ccc(OC)cc3)=C(O)C(=O)N2c2nnc(C)s2)cc1 (stereo not shown) |  | 
308 to 309 | Cc1ccc(C(=O)C2=C(O)C(=O)N(c3ncc(S(=O)(=O)c4ccc([N+](=O)[O-])cc4)s3)C2c2ccc(C(=O)O)cc2)cc1 (stereo not shown) |  | 
281 | COc1ccc(C(=O)C2=C(O)C(=O)N(c3nnc(C)s3)C2c2cccc(C(=O)O)c2)cc1 (stereo not shown) |  | 
251 | COc1ccc(C(=O)C2=C(O)C(=O)N(c3nnc(C)s3)C2c2ccc(O)cc2)cc1 (stereo not shown) |  | 
218 | COC(=O)c1cccc(C2C(C(=O)c3ccc(OC)cc3)=C(O)C(=O)N2c2nnc(C)s2)c1 (stereo not shown) |  | 
237 | COC1=C(C(=O)c2ccc(C)cc2)C(c2ccc(C(C)C)cc2)N(c2ncc(S(=O)(=O)c3ccc([N+](=O)[O-])cc3)s2)C1=O (stereo not shown) |  | 
235 to 237 | COC1=C(C(=O)c2ccc(OC)cc2)C(c2ccc(C(C)(C)C)cc2)N(c2nnc(C)s2)C1=O (stereo not shown) |  | 
269 to 271 | Cc1ccc(C(=O)C2=C(O)C(=O)N(c3ncc(S(C)(=O)=O)s3)C2c2ccc(C(C)C)cc2)cc1 (stereo not shown) |  | 
205 | Cc1ccc(C(=O)C2=C(O)C(=O)N(c3ncc(S(=O)(=O)c4ccc([N+](=O)[O-])cc4)s3)C2c2ccc(C(=O)N(C)C)cc2)cc1 (stereo not shown) (as salt: hydrochloride) |  | 
195 to 197 | CNC(=O)c1ccc(C2C(C(=O)c3ccc(C)cc3)=C(O)C(=O)N2c2ncc(S(=O)(=O)c3ccc([N+](=O)[O-])cc3)s2)cc1 (stereo not shown) (as salt: hydrochloride) |  | 
238 | CNC(=O)c1cccc(C2C(C(=O)c3ccc(OC)cc3)=C(O)C(=O)N2c2nnc(C)s2)c1 (stereo not shown) (as salt: hydrochloride) |  | 
 | COc1ccc(C(=O)C2=C(O)C(=O)N(c3nnc(C)s3)C2c2ccc(Cl)c(Cl)c2)cc1 (stereo not shown) [Example 31] |  | 33

SMILES | melting point [°C] | EC50 [1] [µM] | EC50 [2] [µM]
CON=C(C1=C(O)C(=O)N(c2ncc(S(=O)(=O)c3ccc([N+](=O)[O-])cc3)s2)C1c1ccc(C(C)C)cc1)c1ccc(C)cc1 (mixture of isomers) [Example 49, 3-hydroxy-5-(4-isopropyl-phenyl)-4-{[methoxyimino]-p-tolyl-methyl}-1-[5-(4-nitro-benzenesulfonyl)-thiazol-2-yl]-1,5-dihydro-pyrrol-2-one] | 156 | 4 | 
COC(=O)c1ccc(C2C(C(=O)c3ccc(C)cc3)=C(O)C(=O)N2c2ncc(S(=O)(=O)c3ccc([N+](=O)[O-])cc3)s2)cc1 (stereo not shown) [Example 4, 4-{4-hydroxy-3-(4-methyl-benzoyl)-1-[5-(4-nitro-benzenesulfonyl)-thiazol-2-yl]-5-oxo-2,5-dihydro-1H-pyrrol-2-yl}-benzoic acid methyl ester] | 249 to 251 | 10 | 
COc1ccc(C(=O)C2=C(O)C(=O)N(c3nncs3)C2c2ccc(C(C)(C)C)cc2)cc1 (stereo not shown) [Example 18, 5-(4-tert-butyl-phenyl)-3-hydroxy-4-(4-methoxy-benzoyl)-1-[1,3,4]thiadiazol-2-yl-1,5-dihydro-pyrrol-2-one] | 289 to 291 | 7 | 
COc1ccc(C(=O)C2=C(O)C(=O)N(c3nnc(C)s3)C2c2ccc(OC(F)(F)F)cc2)cc1 (stereo not shown) [Example 20, 3-hydroxy-4-(4-methoxy-benzoyl)-1-(5-methyl-[1,3,4]thiadiazol-2-yl)-5-(4-trifluoromethoxy-phenyl)-1,5-dihydro-pyrrol-2-one] | 245 to 247 | 4 | 
COc1ccc(C(=O)C2=C(O)C(=O)N(c3nnc(C(F)(F)F)s3)C2c2ccc(C(C)(C)C)cc2)cc1 (stereo not shown) [Example 26, 5-(4-tert-butyl-phenyl)-3-hydroxy-4-(4-methoxy-benzoyl)-1-(5-trifluoromethyl-[1,3,4]thiadiazol-2-yl)-1,5-dihydro-pyrrol-2-one] | 271 | 14 | 
COc1ccc(C(=O)C2=C(O)C(=O)N(c3nnc(C(C)C)s3)C2c2ccc(C(C)(C)C)cc2)cc1 (stereo not shown) [Example 35, 5-(4-tert-butyl-phenyl)-3-hydroxy-1-(5-isopropyl-[1,3,4]thiadiazol-2-yl)-4-(4-methoxy-benzoyl)-1,5-dihydro-pyrrol-2-one] | 257 | 4 | 
Cc1ccc(C(=O)C2=C(O)C(=O)N(c3ncc(S(=O)(=O)N(C)C)s3)C2c2ccc(C(C)C)cc2)cc1 (stereo not shown) [Example 39, 2-[3-hydroxy-5-(4-isopropyl-phenyl)-4-(4-methyl-benzoyl)-2-oxo-2,5-dihydro-pyrrol-1-yl]-thiazole-5-sulfonic acid dimethylamide] | 237 to 241 | 16 | 
Cc1ccc(C(=O)C2=C(O)C(=O)N(c3ncc(S(=O)(=O)N4CCOCC4)s3)C2c2ccc(C(C)C)cc2)cc1 (stereo not shown) [Example 41, 3-hydroxy-5-(4-isopropyl-phenyl)-4-(4-methyl-benzoyl)-1-[5-(morpholine-4-sulfonyl)-thiazol-2-yl]-1,5-dihydro-pyrrol-2-one] | 247 to 252 | 16.3 | 
CC(C)c1ccc(C(=O)C2=C(O)C(=O)N(c3ncc(S(=O)(=O)c4ccc([N+](=O)[O-])cc4)s3)C2c2ccc(C(F)(F)F)cc2)cc1 (stereo not shown) [Example 126, 3-hydroxy-4-(4-isopropyl-benzoyl)-1-[5-(4-nitro-benzenesulfonyl)-thiazol-2-yl]-5-(4-trifluoromethyl-phenyl)-1,5-dihydro-pyrrol-2-one] | 300 to 302 | < 10 | 
CC(C)c1ccc(C(=O)C2=C(O)C(=O)N(c3ncc(Sc4ccc([N+](=O)[O-])cc4)s3)C2c2ccc(OC(F)(F)F)cc2)cc1 (stereo not shown) [Example 131, 3-hydroxy-4-(4-isopropyl-benzoyl)-1-[5-(4-nitro-phenylsulfanyl)-thiazol-2-yl]-5-(4-trifluoromethoxy-phenyl)-1,5-dihydro-pyrrol-2-one] | 238 | 13 | 
